Patent publication US20250186566A1, “CELL-BASED VACCINES” (Arkea Bio Corp., priority 2023, published 2025)
Read-outs that look alike come from different tables or passages of the source.

Legend:
cattle = settings: cited from earlier work
CH4 production = settings: cited from earlier work
[1] = 3NOP to adsorbent ratio study; assay type: physicochemical; settings: distilled water at 1% 3NOP loading, 24 hr
Description: Optimal loading of 3NOP onto adsorbents was determined by varying ratios of 3NOP to adsorbent. 3NOP and adsorbent were speed mixed at 2000 rpm for 1 min. at the following ratios by weight: 1:1.5, 1:2, 1:2.5. The adsorbed 3NOP powder mixture was then placed in distilled water at 1% 3NOP loading. The solution was allowed to equilibrate for 24 hr and then an aliquot was taken for HPLC to determine the reduction in 3NOP concentration.

sheep = settings: cited from earlier work
[2] = 3NOP pH and temperature stability (HPLC); assay type: physicochemical; settings: 1-month, 4-30° C., pH 4-10
Description: 3NOP pH and Temperature Stability: Confirmed via HPLC over a 1-month time period at temperature between 4-30° C. and pH 4-10.

[3] = 3NOP volatility (mass loss open to air); assay type: physicochemical; settings: 500 mg open to air, 18-24° C., 15-30% RH, 6 days
Description: 3NOP Volatility:500 mg of 3NOP in a 5 dram vial was left open to air at ˜18-24° C. at 15-30% RH over the course of 6 days. Average mass loss is ˜0.25% per day.

[4] = system: Mbb. Ruminantium, Ms. Mazei, and Mm. mobile; settings: cited from earlier work
[5] = Adsorbent study: binding affinity and adsorptive capacity for 3NOP (HPLC at 230 nm)
Description: The solution was then placed in an ultrasonic bath for ˜4 hr and then allowed to equilibrate over 24 hr.

goats = settings: 10 g/day/goat; cited from earlier work
rumen methanogens = settings: cited from earlier work; for suppression of CH4: bacteriocins, in vitro
rumen Methanobrevibacter = settings: 5.6 μmol/L, in vitro; cited from earlier work
[6] = dairy cows, 40-80 mg/kg feed DM
[7] = 0.2 g of adsorbent in 10 mL of 1% 3NOP/H2O, after 24 hr, Control 8.258
[8] = beef cattle, fed at […] of DM intake

Compound: CC(CO)[N+](=O)[O-] (stereo not drawn) [2-nitropropanol]
- lowering of CH4 production (cattle; steers): 37%

Compound: O=[N+]([O-])OCCCO [3-Nitrooxypropanol (NOP)]
- maximum methane suppression amount (CH4 production; 0.08 mg/g dry matter (2019)): 0.08 mg/g dry matter; 44%
- maximum methane suppression amount (CH4 production; 1.6 g, concentrate pellet): 23%
- maximum methane suppression amount (CH4 production; 1.6 g, roughage): 28%

Compound: O=[N+]([O-])OCCCO [3NOP, 3-Nitrooxypropanol]
- Average Integrated Area of 3NOP in solution ([1]; 3NOP:Adsorbent 1:1.5): 2566.4
- Average Integrated Area of 3NOP in solution ([1]; 3NOP:Adsorbent 1:2): 2566.4
- Average Integrated Area of 3NOP in solution ([1]; 3NOP:Adsorbent 1:2.5): 2566.4
- decrease of CH4 production (sheep; 0.5 g/day): 29%
- degree of CH4 suppression (cattle; added to the rumen through rumen cannula, 0.50 or 2.5 g per cow daily): 7-10%
- decrease of CH4 yield (cattle; beef cattle, 2.0 g/day/cow): 59%
- persistence of inhibition (cattle; beef cattle, 2.0 g/day/cow): up to 112 days
- decrease of CH4 production (cattle; [6]): about 30%
- persistence of decrease (cattle; [6]): up to 84 days
- pH and temperature stability [2]: Confirmed
- Average mass loss [3]: ~0.25 % per day

Compound: N=C(N)NCCC[C@H](N)C(=O)O [Arginine]
- Average Integrated Area of 3NOP in solution ([1]; 3NOP:Adsorbent 1:1.5): 2406.0
- Average Integrated Area of 3NOP in solution ([1]; 3NOP:Adsorbent 1:2): 2372.8
- Average Integrated Area of 3NOP in solution ([1]; 3NOP:Adsorbent 1:2.5): 2435.2

Compound: ClCBr [BCM, bromochloromethane]
- toxicity / residues (cattle; steers fed grain-based diets): no signs of toxicity or residues in meat

Compound: O=S(=O)(O)CCCBr [BPS, 3-bromopropanesulfonate]
- sensitivity of methanogens ([4]; up to 250 μmol/L in pure cultures): resistant

Compound: C[N+](C)(C)CC(=O)O [Betaine]
- 3NOP concentration [5, 7]: 7.202 mM

Compound: O=C([O-])CC(O)(CC(=O)[O-])C(=O)[O-].[Bi+3] [Bismuth Citrate]
- 3NOP concentration [5, 7]: 8.072 mM

Compound: O=S(=O)([O-])[O-].O=S(=O)([O-])[O-].O=S(=O)([O-])[O-].[Bi+3].[Bi+3] [Bismuth Sulfate]
- 3NOP concentration [5, 7]: 8.079 mM

Compound: O=C(O)/C=C/c1ccc(O)c(O)c1 [Caffeic acid]
- maximum suppression methane amount (CH4 production; 12 mM): 12 mM, Caffeic acid; 37.58%;

Compound: O=S(=O)([O-])[O-].[Cu+2] [Copper Sulfate]
- 3NOP concentration [5, 7]: 7.814 mM

Compound: N[C@@H](CCC(=O)O)C(=O)O [Glutamic acid]
- Average Integrated Area of 3NOP in solution ([1]; 3NOP:Adsorbent 1:1.5): 2445.9
- Average Integrated Area of 3NOP in solution ([1]; 3NOP:Adsorbent 1:2): 2452.5
- Average Integrated Area of 3NOP in solution ([1]; 3NOP:Adsorbent 1:2.5): 2446.3

Compound: NC(=O)CC[C@H](N)C(=O)O [Glutamine]
- 3NOP concentration [5, 7]: 7.588 mM

Compound: NCCCC[C@H](N)C(=O)O [Lysine]
- Average Integrated Area of 3NOP in solution ([1]; 3NOP:Adsorbent 1:1.5): 2336.2
- Average Integrated Area of 3NOP in solution ([1]; 3NOP:Adsorbent 1:2): 2308.9
- Average Integrated Area of 3NOP in solution ([1]; 3NOP:Adsorbent 1:2.5): 2266.6
- 3NOP concentration [5]: 18.583 mM

Compound: O=C(O)CC(O)C(=O)O (stereo not drawn) [Malate]
- decrease of CH4 production (cattle; [8]): 16%
- reduction of CH4 per unit of DM intake (cattle; [8]): 9%

Compound: O=[N+]([O-])CCO [NEOH]
- maximum methane suppression amount (CH4 production; 10 mmol/L): 10 mmol/L; 96.7% (NE), 96.7%

Compound: CC[N+](=O)[O-] [NE]
- maximum methane suppression amount (CH4 production; 10 mmol/L): 10 mmol/L; 96.7% (NE), 96.7%

Compound: CC(CO)[N+](=O)[O-] (stereo not drawn) [NPOH]
- maximum methane suppression amount (CH4 production; 10 mmol/L): (NEOH), 41.7% (NPOH)

Compound: O=[N+]([O-])O [Nitrate]
- maximum methane suppression amount (CH4 production; 5 mM (Liu et al., 2017)): 5 mM; 43.26% Liu et al., 2017)
- maximum methane suppression amount (CH4 production; 5 mmol/L (Wu et al., 2019)): 5 mmol/L: 32.92%
- maximum methane suppression amount (CH4 production; 20 mg/g dry matter (Alvarez-Hess et al. 2019)): 20 mg/g dry matter: 21%

Compound: ClC(Cl)Cl [chloroform]
- duration of inhibition of methanogenesis (cattle; drenching to cattle): up to 32 days

Compound: O=C(O)/C=C/C(=O)O [fumarate]
- decrease of CH4 production (goats): 11.9%
- decrease of CH4 production (rumen methanogens; 3.5 g/L, continuous fermenters with forages as a substrate): 38%

Compound: CC[C@H](C)C(=O)O[C@H]1C[C@@H](C)C=C2C=C[C@H](C)[C@H](CC[C@@H]3C[C@@H](O)CC(=O)O3)[C@H]21 [lovastatin]
- reduction of CH4 production (rumen methanogens; Rusitec, 150 mg/L): approximately 42%
- reduction of total CH4 production by rumen methanogens (rumen methanogens; extracted from fermented rice straw, 48 h in vitro incubation): ~28%

Compound: O=c1[nH]c(=O)c2nccnc2[nH]1 [lumazin, 2,4-pteridinedione]
- CH4 production by pure methanogen cultures ([4]; dose-dependent from 0.06 to 0.24 mmol/L): significantly decreased

Compound: CC[C@H](C)C(=O)O[C@H]1CCC=C2C=C[C@H](C)[C@H](CC[C@@H]3C[C@@H](O)CC(=O)O3)[C@H]21 [mevastatin]
- growth of three strains of rumen Methanobrevibacter (rumen Methanobrevibacter): inhibited the growth

Compound: CC[C@@]1([C@@H]2O[C@@H]([C@H]3O[C@@](O)(CO)[C@H](C)C[C@@H]3C)C[C@@H]2C)CC[C@H]([C@]2(C)CC[C@]3(C[C@H](O)[C@@H](C)[C@@H]([C@@H](C)[C@@H](OC)[C@H](C)C(=O)O)O3)O2)O1 [monensin]
- CH4 production by tropical cattle (cattle; 60 mg/day/cow): did not lower CH4 production
- CH4 suppression (cattle; 10-15 ppm): no CH4 suppression
- lowering of CH4 production (g/kg DM intake) (cattle; fed at 24-35 mg/kg diet): up to 10%
- decrease of CH4 production (cattle; tropical cattle, 250 mg/day/cow): about 30%

Compound: CC[N+](=O)[O-] [nitroethane]
- decrease of CH4 production (sheep; orally 24 mg/kg body weight daily for 5 days): up to 45%
- decrease of CH4 production (sheep; orally 72 mg/kg body weight daily for 5 days): ≤ 69%

Compound: O=C(O)/C=C/c1ccc(O)cc1 [p-coumaric acid]
- maximum suppression methane amount (CH4 production; 12 mM): p-coumaric acid; 28.33%

Compound: C#CC(=O)O [propynoic acid]
- lowering of CH4 production (rumen methanogens; 6 mmol/L): 67%
- lowering of CH4 production (rumen methanogens; 12 mmol/L): 78%

Compound: Oc1ccc(C=Cc2cc(O)cc(O)c2)cc1 [resveratrol]
- maximum suppression methane amount (CH4 production; 25 mg, high-concentrate diets): high-concentrate diets; 41%
- maximum suppression methane amount (CH4 production; 25 mg, high-forage diets): 25 mg, high-forage diets; 60%;

Compound: Bovicin HC5
- suppression of CH4 (rumen methanogens): 50%

Compound: Cyclodextrin
- 3NOP concentration [5, 7]: 7.676 mM

Compound: Lactobacillus plantarum
- maximum suppression methane amount (CH4 production; 5.3 lg cfu/g fresh weight, 72 h): Lactobacillus plantarum, 8.8 ml/g(72 h)

Compound: Nisin
- suppression of CH4 (rumen methanogens): up to 40%
